Literature values, collected in US20220241167A1, “PRODUCT FOR TREATING KERATINOUS FIBERS, CONTAINING SILANES OF SPECIFIC FORMULAE” (Henkel AG & Co. KGaA, priority 2019, published 2022).

Details: for solubility in water: 25° C.

| Compound | solubility in water | solubility in water (in words) (at 25° C.) |
| --- | --- | --- |
| O=S(=O)([O-])c1ccc(N=Nc2c(O)ccc3ccccc23)cc1.[Na+] [Acid Orange 7, sodium salt of 4-[(2-hydroxy-1-naphthyl)azo]benzene sulphonate] | more than 7 g/L | – |
| Nc1cc(S(=O)(=O)[O-])cc2cc(S(=O)(=O)[O-])c(N=Nc3ccccc3)c(O)c12.[Na+].[Na+] [Acid Red 33, diantrium salt of 5-amino-4-hydroxy-3-(phenylazo)-naphthalene-2,7-disulphonate] | about 2.5 g/L | – |
| O=C([O-])C1=NN(c2ccc(S(=O)(=O)[O-])cc2)C(=O)C1N=Nc1ccc(S(=O)(=O)[O-])cc1.[Na+].[Na+].[Na+] (stereo not drawn) [Acid Yellow 23, trisodium salt of 4,5-dihydro-5-oxo-1-(4-sulfophenyl)-4-((4-sulfophenyl)azo)-1H-pyrazole-3-carboxylic acid] | – | highly soluble in water |
